The results in this text go back to patent US20080161232A1, “C5a Receptor Antagonist” (JERINI AG, priority 2005, published 2008).

Positions of bridges follow the written chain, without caps; N, C: chain ends. Non-standard residues stand in square brackets, D forms with d. Residues, ends and D or L forms follow the SMILES beside them. Phe(3-Cl) = N[C@@H](Cc1cccc(Cl)c1)C(=O)O; Phe(3-Me) = Cc1cccc(C[C@H](N)C(=O)O)c1; Phe(4-F) = N[C@@H](Cc1ccc(F)cc1)C(=O)O; 1Nal = N[C@@H](Cc1cccc2ccccc12)C(=O)O; His(τ-Me) = Cn1cnc(C[C@H](N)C(=O)O)c1; Bta = N[C@@H](Cc1csc2ccccc12)C(=O)O; Hyp = O=C(O)[C@@H]1C[C@@H](O)CN1; d(hLeu) = CC(C)CC[C@@H](N)C(=O)O; Tic = O=C(O)[C@@H]1Cc2ccccc2CN1; Cha = N[C@@H](CC1CCCCC1)C(=O)O; Cit = NC(=O)NCCC[C@H](N)C(=O)O; NMeN = CN[C@@H](CC(N)=O)C(=O)O; dCha = N[C@H](CC1CCCCC1)C(=O)O; Chg = N[C@H](C(=O)O)C1CCCCC1; dNle = CCCC[C@@H](N)C(=O)O; Pip = O=C(O)[C@@H]1CCCCN1; Nle = CCCC[C@H](N)C(=O)O; Orn = NCCC[C@H](N)C(=O)O

For this assay, the target named is T1, human C5aR(CD88) (Homo sapiens, UniProt P21730).
T1 construct: expressed in transfected cells; host or cells: rat basophilic leukemia cells (RBL)
T1 sequence (P21730 1-350): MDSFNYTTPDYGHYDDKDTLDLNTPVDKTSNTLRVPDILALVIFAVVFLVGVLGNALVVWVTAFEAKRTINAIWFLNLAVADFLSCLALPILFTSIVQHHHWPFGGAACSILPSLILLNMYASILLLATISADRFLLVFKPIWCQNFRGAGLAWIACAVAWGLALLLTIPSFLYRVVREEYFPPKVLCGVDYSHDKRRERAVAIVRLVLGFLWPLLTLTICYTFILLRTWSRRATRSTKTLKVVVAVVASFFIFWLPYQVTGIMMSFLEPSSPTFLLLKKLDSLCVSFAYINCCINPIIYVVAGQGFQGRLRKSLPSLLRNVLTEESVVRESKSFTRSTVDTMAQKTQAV
As to the kind of experiment: Determination of the IC50 value in an enzyme release assay (functional assay, antagonistic activity). The format is cell-based. Particulars: antagonistic activity; IC50 group in enzyme release assay, RBL cells expressing human C5aR(CD88); read-out: activity (group).

Regarding `CC(=O)N[C@@H](Cc1ccccc1)C(=O)N[C@H]1CCCNC(=O)[C@H](Cc2ccccc2)NC(=O)[C@H](Cc2c[nH]c3ccccc23)NC(=O)[C@@H](CCC(C)C)NC(=O)[C@@H]2C[C@@H](O)CN2C1=O` [Compound 181, Ac-Phe-[Orn-Hyp-hle-Trp-Phe]] (Ac-F[Orn][Hyp][d(hLeu)]WF; lactam 2-C), the IC50 was 20 to 50 nM. With `CCCC[C@@H]1NC(=O)[C@H](Cc2c[nH]c3ccccc23)NC(=O)[C@H](Cc2cccc(C)c2)NC(=O)[C@@H]2C[C@@H](O)CN2C(=O)[C@@H](NC(=O)[C@H](Cc2ccccc2)NC(C)=O)CCCNC1=O` [Compound 182, Ac-Phe-[Orn-Hyp-Mmf-Trp-Nle]] (Ac-F[Orn][Hyp][Phe(3-Me)]W[Nle]; lactam 2-C), the IC50 lay within 50 to 200 nM. `CC(=O)N[C@@H](Cc1ccccc1)C(=O)N[C@H]1CCCNC(=O)[C@H](Cc2ccccc2)NC(=O)[C@H](Cc2c[nH]c3ccccc23)NC(=O)[C@H](Cc2cccc(C)c2)NC(=O)[C@@H]2C[C@@H](O)CN2C1=O` [Compound 183, Ac-Phe-[Orn-Hyp-Mmf-Trp-Phe]] (Ac-F[Orn][Hyp][Phe(3-Me)]WF; lactam 2-C): the IC50 lay within 50 to 200 nM. Turning to `CCCC[C@@H]1NC(=O)[C@H](Cc2c[nH]c3ccccc23)NC(=O)[C@@H](CC2CCCCC2)NC(=O)[C@H](CC(N)=O)N(C)C(=O)[C@@H](NC(=O)[C@H](Cc2ccccc2)NC(C)=O)CCCNC1=O` [Compound 184, Ac-Phe-[Orn-NMD-cha-Trp-Nle]] (Ac-F[Orn][NMeN][dCha]W[Nle]; lactam 2-C), the IC50 lay within 50 to 200 nM.

Turning to `CC(=O)N[C@@H](Cc1ccccc1)C(=O)N[C@H]1CCCNC(=O)[C@H](Cc2ccccc2)NC(=O)[C@H](Cc2csc3ccccc23)NC(=O)[C@@H](CCC(C)C)NC(=O)[C@@H]2CCCCN2C1=O` [Compound 185, Ac-Phe-[Orn-Pip-hle-Bta-Phe]] (Ac-F[Orn][Pip][d(hLeu)][Bta]F; lactam 2-C), the IC50 lay within 50 to 200 nM. On to `CCCC[C@@H]1NC(=O)[C@H](Cc2ccc(F)cc2)NC(=O)[C@@H](CC2CCCCC2)NC(=O)[C@@H]2CCCN2C(=O)[C@@H](NC(=O)[C@H](Cc2ccccc2)NC(C)=O)CCCNC1=O` [Compound 186, Ac-Phe-[Orn-Pro-cha-Pff-Nle]] (Ac-F[Orn]P[dCha][Phe(4-F)][Nle]; lactam 2-C), for which the IC50 was in the range of 50 to 200 nM. Turning to `CC(=O)N[C@@H](Cc1ccccc1)C(=O)N[C@H]1CCCNC(=O)[C@H](Cc2ccccc2)NC(=O)[C@H](Cc2ccc(F)cc2)NC(=O)[C@@H](CC2CCCCC2)NC(=O)[C@@H]2CCCN2C1=O` [Compound 187, Ac-Phe-[Orn-Pro-cha-Pff-Phe]] (Ac-F[Orn]P[dCha][Phe(4-F)]F; lactam 2-C), the IC50 lay within 50 to 200 nM.

As to `CC(=O)N[C@@H](Cc1ccccc1)C(=O)N[C@H]1CCCNC(=O)[C@H](Cc2cccc3ccccc23)NC(=O)[C@H](Cc2c[nH]c3ccccc23)NC(=O)[C@@H](CC2CCCCC2)NC(=O)[C@@H]2CCCN2C1=O` [Compound 188, Ac-Phe-[Orn-Pro-cha-Trp-1Ni]] (Ac-F[Orn]P[dCha]W[1Nal]; lactam 2-C), the IC50 was 50 to 200 nM. Consider `CC(=O)N[C@@H](Cc1ccccc1)C(=O)N[C@H]1CCCNC(=O)[C@H](CC2CCCCC2)NC(=O)[C@H](Cc2c[nH]c3ccccc23)NC(=O)[C@@H](CC2CCCCC2)NC(=O)[C@@H]2CCCN2C1=O` [Compound 189, Ac-Phe-[Orn-Pro-cha-Trp-Cha]] (Ac-F[Orn]P[dCha]W[Cha]; lactam 2-C), for which the IC50 fell in the range of 50 to 200 nM. The result for `CC(=O)N[C@@H](Cc1ccccc1)C(=O)N[C@H]1CCCNC(=O)[C@H](C2CCCCC2)NC(=O)[C@H](Cc2c[nH]c3ccccc23)NC(=O)[C@@H](CC2CCCCC2)NC(=O)[C@@H]2CCCN2C1=O` [Compound 190, Ac-Phe-[Orn-Pro-cha-Trp-Chg]] (Ac-F[Orn]P[dCha]W[Chg]; lactam 2-C) reads 50 to 200 nM; that for `CC(=O)N[C@@H](Cc1ccccc1)C(=O)N[C@H]1CCCNC(=O)[C@H](Cc2cn(C)cn2)NC(=O)[C@H](Cc2c[nH]c3ccccc23)NC(=O)[C@@H](CC2CCCCC2)NC(=O)[C@@H]2CCCN2C1=O` [Compound 192, Ac-Phe-[Orn-Pro-cha-Trp-Ecr]] (Ac-F[Orn]P[dCha]W[His(τ-Me)]; lactam 2-C), 20 to 50 nM; that for `CC(=O)N[C@@H](Cc1ccccc1)C(=O)N[C@H]1CCCNC(=O)[C@H](CC(C)C)NC(=O)[C@H](Cc2c[nH]c3ccccc23)NC(=O)[C@@H](CC2CCCCC2)NC(=O)[C@@H]2CCCN2C1=O` [Compound 193, Ac-Phe-[Orn-Pro-cha-Trp-Leu]] (Ac-F[Orn]P[dCha]WL; lactam 2-C), 50 to 200 nM.

Regarding `CCCC[C@H]1NC(=O)[C@H](Cc2c[nH]c3ccccc23)NC(=O)[C@@H](CC2CCCCC2)NC(=O)[C@@H]2CCCN2C(=O)[C@@H](NC(=O)[C@H](Cc2ccccc2)NC(C)=O)CCCNC1=O` [Compound 194, Ac-Phe-[Orn-Pro-cha-Trp-nle]] (Ac-F[Orn]P[dCha]W[dNle]; lactam 2-C), the IC50 was in the range of 50 to 200 nM. Turning to `CCCC[C@@H]1NC(=O)[C@H](Cc2csc3ccccc23)NC(=O)[C@@H](CCC(C)C)NC(=O)[C@@H]2CCCN2C(=O)[C@@H](NC(=O)[C@H](Cc2ccccc2)NC(C)=O)CCCNC1=O` [Compound 196, Ac-Phe-[Orn-Pro-hle-Bta-Nle]] (Ac-F[Orn]P[d(hLeu)][Bta][Nle]; lactam 2-C), the IC50 is 50 to 200 nM. `CC(=O)N[C@@H](Cc1ccccc1)C(=O)N[C@H]1CCCNC(=O)[C@H](Cc2ccccc2)NC(=O)[C@H](Cc2csc3ccccc23)NC(=O)[C@@H](CCC(C)C)NC(=O)[C@@H]2CCCN2C1=O` [Compound 197, Ac-Phe-[Orn-Pro-hle-Bta-Phe]] (Ac-F[Orn]P[d(hLeu)][Bta]F; lactam 2-C): the IC50 fell in the range of 50 to 200 nM. With `CC(=O)N[C@@H](Cc1ccccc1)C(=O)N[C@H]1CCCNC(=O)[C@H](Cc2ccccc2)NC(=O)[C@H](Cc2ccc(F)cc2)NC(=O)[C@@H](CCC(C)C)NC(=O)[C@@H]2CCCN2C1=O` [Compound 198, Ac-Phe-[Orn-Pro-hle-Pff-Phe]] (Ac-F[Orn]P[d(hLeu)][Phe(4-F)]F; lactam 2-C), the IC50 lay in the range of 50 to 200 nM. For the molecule `CCCC[C@@H]1NC(=O)[C@H](Cc2c[nH]c3ccccc23)NC(=O)[C@@H](CCC(C)C)NC(=O)[C@@H]2CCCN2C(=O)[C@@H](NC(=O)[C@H](Cc2ccccc2)NC(C)=O)CCCNC1=O` [Compound 199, Ac-Phe-[Orn-Pro-hle-Trp-Nle]] (Ac-F[Orn]P[d(hLeu)]W[Nle]; lactam 2-C), the IC50 lay in the range of 20 to 50 nM.

Regarding `CCCC[C@@H]1NC(=O)[C@H](Cc2c[nH]c3ccccc23)NC(=O)[C@@H](CC2CCCCC2)NC(=O)[C@H](CO)NC(=O)[C@@H](NC(=O)[C@H](Cc2ccccc2)NC(C)=O)CCCNC1=O` [Compound 200, Ac-Phe-[Orn-Ser-cha-Trp-Nle]] (Ac-F[Orn]S[dCha]W[Nle]; lactam 2-C), the IC50 was 50 to 200 nM. The result for `CCCC[C@@H]1NC(=O)[C@H](Cc2c[nH]c3ccccc23)NC(=O)[C@@H](CCC(C)C)NC(=O)[C@H](CO)NC(=O)[C@@H](NC(=O)[C@H](Cc2ccccc2)NC(C)=O)CCCNC1=O` [Compound 202, Ac-Phe-[Orn-Ser-hle-Trp-Nle]] (Ac-F[Orn]S[d(hLeu)]W[Nle]; lactam 2-C) reads 50 to 200 nM; that for `CCCC[C@@H]1NC(=O)[C@H](Cc2c[nH]c3ccccc23)NC(=O)[C@@H](CC2CCCCC2)NC(=O)[C@H]([C@@H](C)O)NC(=O)[C@@H](NC(=O)[C@H](Cc2ccccc2)NC(C)=O)CCCNC1=O` [Compound 203, Ac-Phe-[Orn-Thr-cha-Trp-Nle]] (Ac-F[Orn]T[dCha]W[Nle]; lactam 2-C), 50 to 200 nM. Take `CCCC[C@@H]1NC(=O)[C@H](Cc2c[nH]c3ccccc23)NC(=O)[C@@H](CC2CCCCC2)NC(=O)[C@@H]2Cc3ccccc3CN2C(=O)[C@@H](NC(=O)[C@H](Cc2ccccc2)NC(C)=O)CCCNC1=O` [Compound 205, Ac-Phe-[Orn-Tic-cha-Trp-Nle]] (Ac-F[Orn][Tic][dCha]W[Nle]; lactam 2-C): the IC50 fell in the range of 50 to 200 nM. On to `CC(=O)N[C@@H](Cc1ccccc1)C(=O)N[C@@H](C)C(=O)N1CCC[C@H]1C(=O)N[C@H](CC1CCCCC1)C(=O)N[C@@H](Cc1csc2ccccc12)C(=O)N[C@@H](Cc1ccccc1)C(N)=O` [Compound 206, Ac-Phe-Ala-Pro-cha-Bta-Phe-NH2] (Ac-FAP[dCha][Bta]F-NH2), for which the IC50 was in the range of 50 to 200 nM. The result for `CC(=O)N[C@@H](Cc1ccccc1)C(=O)N[C@@H](CCCNC(=N)N)C(=O)N1CCC[C@H]1C(=O)N[C@H](CCC(C)C)C(=O)N[C@@H](Cc1csc2ccccc12)C(=O)N[C@@H](Cc1ccccc1)C(N)=O` [Compound 207, Ac-Phe-Arg-Pro-hle-Bta-Phe-NH2] (Ac-FRP[d(hLeu)][Bta]F-NH2) reads 50 to 200 nM; that for `CC(=O)N[C@@H](Cc1ccccc1)C(=O)N[C@@H](CCCNC(=N)N)C(=O)N1CCC[C@H]1C(=O)N[C@H](CCC(C)C)C(=O)N[C@@H](Cc1cccc(Cl)c1)C(=O)N[C@@H](Cc1ccccc1)C(N)=O` [Compound 208, Ac-Phe-Arg-Pro-hle-Mcf-Phe-NH2] (Ac-FRP[d(hLeu)][Phe(3-Cl)]F-NH2), 50 to 200 nM; that for `CC(=O)N[C@@H](Cc1ccccc1)C(=O)N[C@@H](CCCNC(N)=O)C(=O)N1C[C@H](O)C[C@H]1C(=O)N[C@H](CCC(C)C)C(=O)N[C@@H](Cc1csc2ccccc12)C(=O)N[C@@H](Cc1ccccc1)C(N)=O` [Compound 209, Ac-Phe-Cit-Hyp-hle-Bta-Phe-NH2] (Ac-F[Cit][Hyp][d(hLeu)][Bta]F-NH2), 50 to 200 nM. The same measure for `CC(=O)N[C@@H](Cc1ccccc1)C(=O)N[C@@H](CCCNC(N)=O)C(=O)N1CCC[C@H]1C(=O)N[C@H](CC1CCCCC1)C(=O)N[C@@H](Cc1csc2ccccc12)C(=O)N[C@@H](Cc1ccccc1)C(N)=O` [Compound 210, Ac-Phe-Cit-Pro-cha-Bta-Phe-NH2] (Ac-F[Cit]P[dCha][Bta]F-NH2): 50 to 200 nM.
